Results from patent publication US7704995B2 (Exelixis, Inc., priority 2003, dated 2010).
pIC50: −log10 of the molar value.

Target: T1, Chk1 (Homo sapiens, UniProt O14757)
T1 construct: purchased Upstate Biotechnology
T1 sequence (O14757 1-476): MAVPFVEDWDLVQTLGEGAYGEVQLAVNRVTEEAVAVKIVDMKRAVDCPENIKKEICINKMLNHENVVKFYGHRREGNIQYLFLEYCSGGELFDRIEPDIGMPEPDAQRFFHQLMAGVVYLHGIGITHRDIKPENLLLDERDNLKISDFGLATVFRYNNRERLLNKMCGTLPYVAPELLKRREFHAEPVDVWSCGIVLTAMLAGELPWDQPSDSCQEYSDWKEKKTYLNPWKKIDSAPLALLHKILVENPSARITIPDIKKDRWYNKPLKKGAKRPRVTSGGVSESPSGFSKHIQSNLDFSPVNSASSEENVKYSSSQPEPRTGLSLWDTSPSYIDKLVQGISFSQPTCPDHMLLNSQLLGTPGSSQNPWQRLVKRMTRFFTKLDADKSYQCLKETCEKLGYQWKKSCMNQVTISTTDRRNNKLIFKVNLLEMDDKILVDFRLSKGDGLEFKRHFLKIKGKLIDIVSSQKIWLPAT
Assay: Chk1 kinase assay: incorporation of γ-33P ATP into immobilized myelin basic protein
Type: biochemical
Conditions: read-out: Chk1 IC50
Protocol: Chk1 and Chk2 assays were performed by measuring incorporation of γ-^33P ATP into immobilized myelin basic protein (MBP). High binding white 384 well plates (Greiner) were coated with MBP (Sigma #M-1891) by incubation of 60 ul/well of 20 μg/ml MBP in Tris-buffered saline (TBS; 50 mM Tris pH 8.0, 138 mM NaCl, 2.7 mM KCl) for 24 hours at 4° C. Plates were washed 3× with 100 μl TBS. Kinase reactions were carried out in a total volume of 34 μl in kinase buffer (5 mM Hepes pH 7.6, 15 mM NaCl, 0.01% bovine gamma globulin (Sigma #I-5506), 10 mM MgCl2, 1 mM DTT, 0.02% TritonX-100). Compound dilutions were performed in DMSO and added to assay wells to a final DMSO concentration of 1%. Each data point was measured in duplicate, and at least two duplicate assays were performed for each individual compound determination. Chk1 and Chk2 enzymes (Upstate Biotechnology) were added to final concentrations of 10 nM (Chk1) or 20 nM (Chk2). A mixture of unlabeled ATP and γ-^33P ATP was added to start the reaction (2×10^6 cpm of γ-^33P ATP per well (3000 Ci/mmole) and either 10 μM or 30 μM unlabeled ATP (for Chk1 and Chk2 assays respectively). The reaction was carried out for 1 hour at room temperature with shaking. Plates were washed 7× with TBS, followed by the addition of 50 μl/well scintillation fluid (Wallac). Plates were read using a Wallac Trilux counter. This is only one format of such assays, various other formats are possible, as known to those skilled in the art.
The above assay procedure can be used to determine the IC50 for inhibition and/or the inhibition constant Ki. The IC50 is defined as the concentration of compound required to reduce the enzyme activity by 50% under the conditions of the assay. […] The Ki for a compound may be determined from the IC50 based on three assumptions. First, only one compound molecule binds to the enzyme and there is no cooperativity. […] Third, the enzymatic rate of the enzyme-inhibitor complex is zero. The rate (i.e., compound concentration) data are fitted to the equation: […]

SMILES | pIC50
Nc1ncc(-c2ccccc2)nc1C(=O)N[C@H]1CCc2ccccc21 [Example 5, 3-amino-N-[(1S)-2,3-dihydro-1H-inden-1-yl]-6-phenylpyrazine-2-carboxamide] | ≤ 5.00
Nc1ncc(-c2ccccc2)nc1C(=O)NC1CCCCC1 [Example 14, 3-amino-N-cyclohexyl-6-phenylpyrazine-2-carboxamide] | ≤ 5.00
COc1ccccc1-c1cnc(N)c(C(N)=O)n1 [Example 17, 3-amino-6-[2-(methyloxy)phenyl]pyrazine-2-carboxamide] | ≤ 5.00
NC(=O)c1nc(-c2ccc(F)cc2F)cnc1N [Example 18, 3-amino-6-(2,4-difluorophenyl)pyrazine-2-carboxamide] | ≤ 5.00
NC(=O)c1nc(-c2cccc(F)c2)cnc1N [Example 19, 3-amino-6-(3-fluorophenyl)pyrazine-2-carboxamide] | ≤ 5.00
NC(=O)c1nc(-c2ccc3ccccc3c2)cnc1N [Example 27, 3-amino-6-naphthalen-2-ylpyrazine-2-carboxamide] | ≤ 5.00
CNC(=O)c1cc(-c2cccc(CO)c2)cnc1N [Example 35] | 6.00 to 7.30
NC(=O)c1nc(-c2ccccc2)cnc1NCc1ccccc1 [Example 39, 6-phenyl-3-[(phenylmethyl)amino]pyrazine-2-carboxamide] | ≤ 5.00
CCCNc1ncc(-c2ccccc2)nc1C(N)=O [Example 40, 6-phenyl-3-(propylamino)pyrazine-2-carboxamide] | ≤ 5.00
CNC(=O)c1nc(-c2cccc(N)c2)cnc1N [Example 51, 3-amino-6-(3-aminophenyl)-N-methylpyrazine-2-carboxamide] | 6.00 to 7.30
CNC(=O)c1nc(-c2cccc(CO)c2)cnc1N [Example 57, 3-amino-6-[3-(hydroxymethyl)phenyl]-N-methylpyrazine-2-carboxamide] | 6.00 to 7.30
CNC(=O)c1nc(-c2ccc(CO)cc2)cnc1N [Example 58, 3-amino-6-[4-(hydroxymethyl)phenyl]-N-methylpyrazine-2-carboxamide] | 5.00 to 6.00
C/N=C(\C)c1cccc(-c2cnc(N)c(C(=O)NC)n2)c1 [Example 59, 3-amino-N-methyl-6-{3-[(1E)-N-methylethanimidoyl]phenyl}pyrazine-2-carboxamide] | 5.00 to 6.00
CNC(=O)c1nc(-c2cccc(OC)c2)cnc1N [Example 60, 3-amino-N-methyl-6-[3-(methyloxy)phenyl]pyrazine-2-carboxamide] | 5.00 to 6.00
CNC(=O)c1nc(-c2ccc(NC(C)=O)cc2)cnc1N [Example 63, 6-[4-(acetylamino)phenyl]-3-amino-N-methylpyrazine-2-carboxamide] | 5.00 to 6.00
CNC(=O)c1nc(-c2noc(C3CCCC3)n2)cnc1N [Example 67, 3-amino-6-(5-cyclopentyl-1,2,4-oxadiazol-3-yl)-N-methylpyrazine-2-carboxamide] | ≤ 5.00
CNC(=O)c1nc(-c2noc(-c3ccccc3)n2)cnc1N [Example 69, 3-amino-N-methyl-6-(5-phenyl-1,2,4-oxadiazol-3-yl)pyrazine-2-carboxamide] | ≤ 5.00
CNC(=O)c1nc(-c2noc(Cc3ccccc3)n2)cnc1N [Example 70, 3-amino-N-methyl-6-[5-(phenylmethyl)-1,2,4-oxadiazol-3-yl]pyrazine-2-carboxamide] | ≤ 5.00
CNC(=O)c1nc(-c2noc(CCc3ccccc3)n2)cnc1N [Example 72, 3-amino-N-methyl-6-[5-(2-phenylethyl)-1,2,4-oxadiazol-3-yl]pyrazine-2-carboxamide] | ≤ 5.00
CNC(=O)c1nc(-c2noc(C(C)(C)C)n2)cnc1N [Example 74, 3-amino-6-[5-(1,1-dimethylethyl)-1,2,4-oxadiazol-3-yl]-N-methylpyrazine-2-carboxamide] | ≤ 5.00

SMILES | pIC50
CNC(=O)c1nc(-c2noc(-c3ccco3)n2)cnc1N [Example 75, 3-amino-6-(5-furan-2-yl-1,2,4-oxadiazol-3-yl)-N-methylpyrazine-2-carboxamide] | ≤ 5.00
CNC(=O)c1nc(-c2ccc(N(C)C)cc2)cnc1N [Example 76, 3-amino-6-[4-(dimethylamino)phenyl]-N-methylpyrazine-2-carboxamide] | 5.00 to 6.00
CNC(=O)c1nc(-c2ccc(NS(C)(=O)=O)cc2)cnc1N [Example 77, 3-amino-N-methyl-6-{4-[(methylsulfonyl)amino]phenyl}pyrazine-2-carboxamide] | 5.00 to 6.00
CNC(=O)c1nc(-c2cc(C)cc(C)c2)cnc1N [Example 78, 3-amino-6-(3,5-dimethylphenyl)-N-methylpyrazine-2-carboxamide] | 5.00 to 6.00
CNC(=O)c1nc(-c2ccc(C(C)=O)cc2)cnc1N [Example 79, 6-(4-acetylphenyl)-3-amino-N-methylpyrazine-2-carboxamide] | 5.00 to 6.00
CNC(=O)c1nc(-c2ccc(OC)c(OC)c2)cnc1N [Example 80, 3-amino-6-[3,4-bis(methyloxy)phenyl]-N-methylpyrazine-2-carboxamide] | 5.00 to 6.00
CNC(=O)c1nc(-c2cccc(NC(=O)c3ccccc3)c2)cnc1N [Example 81, 3-amino-N-methyl-6-{3-[(phenylcarbonyl)amino]phenyl}pyrazine-2-carboxamide] | 6.00 to 7.30
CNC(=O)c1nc(-c2cccc(NS(C)(=O)=O)c2)cnc1N [Example 82, 3-amino-N-methyl-6-{3-[(methylsulfonyl)amino]phenyl}pyrazine-2-carboxamide] | 5.00 to 6.00
CNC(=O)c1nc(-c2cccc(-c3nnn[nH]3)c2)cnc1N [Example 83, 3-amino-N-methyl-6-[3-(1H-tetrazol-5-yl)phenyl]pyrazine-2-carboxamide] | 5.00 to 6.00
CNC(=O)c1nc(-c2cccc(C(=O)NCc3ccccc3)c2)cnc1N [Example 84, 3-amino-N-methyl-6-(3-{[(phenylmethyl)amino]carbonyl}phenyl)pyrazine-2-carboxamide] | 6.00 to 7.30
CNC(=O)c1nc(-c2cccc(C(N)=O)c2)cnc1N [Example 85, 3-amino-6-[3-(aminocarbonyl)phenyl]-N-methylpyrazine-2-carboxamide] | 5.00 to 6.00
CNC(=O)c1nc(-c2cccc(C(=O)N(C)C)c2)cnc1N [Example 86, 3-amino-6-{3-[(dimethylamino)carbonyl]phenyl}-N-methylpyrazine-2-carboxamide] | 5.00 to 6.00
CNC(=O)c1nc(-c2ccc(S(C)(=O)=O)cc2)cnc1N [Example 87, 3-amino-N-methyl-6-[4-(methylsulfonyl)phenyl]pyrazine-2-carboxamide] | 5.00 to 6.00
CCNC(=O)c1nc(-c2cccc(N)c2)cnc1N [Example 88, 3-amino-6-(3-aminophenyl)-N-ethylpyrazine-2-carboxamide] | 5.00 to 6.00
CNC(=O)c1nc(-c2cccc(NC(=O)Nc3ccc(F)cc3)c2)cnc1N [Example 89, 3-amino-6-[3-({[(4-fluorophenyl)amino]carbonyl}amino)phenyl]-N-methylpyrazine-2-carboxamide] | 6.00 to 7.30
CNC(=O)c1nc(-c2cccc(NC(=O)Nc3ccc(OC)cc3)c2)cnc1N [Example 90, 3-amino-N-methyl-6-{3-[({[4-(methyloxy)phenyl]amino}carbonyl)amino]phenyl}pyrazine-2-carboxamide] | 6.00 to 7.30
CNC(=O)c1nc(-c2cccc(NC(=O)Nc3cccc(-c4cnc(N)c(C(=O)NC)n4)c3)c2)cnc1N [Example 91, 6,6′-[(oxomethanediyl)bis(iminobenzene-3,1-diyl)]bis(3-amino-N-methylpyrazine-2-carboxamide)] | > 7.30
CNC(=O)c1nc(-c2cccc(C(=O)O)c2)cnc1N [Example 92, 3-{5-amino-6-[(methylamino)carbonyl]pyrazin-2-yl}benzoic acid] | ≤ 5.00
CNC(=O)c1nc(-c2cccc(C(=O)N3CCN(C)CC3)c2)cnc1N [Example 93, 3-amino-N-methyl-6-{3-[(4-methylpiperazin-1-yl)carbonyl]phenyl}pyrazine-2-carboxamide] | 5.00 to 6.00
